Laboratory results reported in ChEMBL document CHEMBL4342421, “Current scenario of tetrazole hybrids for antibacterial activity” (Eur J Med Chem, 2019).
≈ marks a conversion by molar mass, not a printed value.

System: Escherichia coli
Experiment: Antimicrobial activity against Escherichia coli
Format: functional
Conditions: not given

Structure (SMILES) | MIC [µg/mL]
Oc1cccc(-c2nnnn2-c2nc3ccccc3s2)c1 | 50 to 100 (≈ 169 to 339 µM)
CN(C)c1ccc(-c2nnnn2-c2nc3ccccc3s2)cc1 | 50 to 100 (≈ 155 to 310 µM)
CCn1cc(C(=O)O)c(=O)c2cnc(N3CCNCC3)nc21 [PIPEMIDIC ACID] | 31.2 (≈ 103 µM)
c1ccc(-c2nnnn2-c2nc3ccccc3s2)cc1 | 50 to 100 (≈ 179 to 358 µM)

The next lines start with the values.

MIC [µg/mL] | Structure (SMILES)
30 (≈ 92.8 µM) | O=C(N[C@H](CO)[C@H](O)c1ccc([N+](=O)[O-])cc1)C(Cl)Cl [CHLORAMPHENICOL]
50 to 100 (≈ 169 to 339 µM) | Oc1ccc(-c2nnnn2-c2nc3ccccc3s2)cc1
26 (≈ 45.2 µM) | CCCCCC(O)C(C(CCCCCCC(=O)OCCn1c([N+](=O)[O-])cnc1C)n1nnnc1C)n1nnnc1C (stereo not drawn)
50 to 100 (≈ 170 to 341 µM) | Cc1ccc(-c2nnnn2-c2nc3ccccc3s2)cc1

System: Pseudomonas aeruginosa
Experiment: Antimicrobial activity against Pseudomonas aeruginosa
Format: functional
Conditions: not given

Structure (SMILES) | MIC [µg/mL]
Oc1cccc(-c2nnnn2-c2nc3ccccc3s2)c1 | 50 to 100 (≈ 169 to 339 µM)
CN(C)c1ccc(-c2nnnn2-c2nc3ccccc3s2)cc1 | 50 to 100 (≈ 155 to 310 µM)
c1ccc(-c2nnnn2-c2nc3ccccc3s2)cc1 | 50 to 100 (≈ 179 to 358 µM)

Other lines, results leading:

MIC [µg/mL] | Structure (SMILES)
50 to 100 (≈ 169 to 339 µM) | Oc1ccc(-c2nnnn2-c2nc3ccccc3s2)cc1
50 to 100 (≈ 170 to 341 µM) | Cc1ccc(-c2nnnn2-c2nc3ccccc3s2)cc1

System: Staphylococcus aureus
Experiment: Antimicrobial activity against Staphylococcus aureus
Format: functional
Conditions: not given

Structure (SMILES) | MIC [µg/mL]
Oc1cccc(-c2nnnn2-c2nc3ccccc3s2)c1 | 50 to 100 (≈ 169 to 339 µM)
CN(C)c1ccc(-c2nnnn2-c2nc3ccccc3s2)cc1 | 50 to 100 (≈ 155 to 310 µM)
c1ccc(-c2nnnn2-c2nc3ccccc3s2)cc1 | 50 to 100 (≈ 179 to 358 µM)

More lines, now with the values ahead:

MIC [µg/mL] | Structure (SMILES)
50 to 100 (≈ 169 to 339 µM) | Oc1ccc(-c2nnnn2-c2nc3ccccc3s2)cc1
72 (≈ 125 µM) | CCCCCC(O)C(C(CCCCCCC(=O)OCCn1c([N+](=O)[O-])cnc1C)n1nnnc1C)n1nnnc1C (stereo not drawn)
50 to 100 (≈ 170 to 341 µM) | Cc1ccc(-c2nnnn2-c2nc3ccccc3s2)cc1

System: Bacillus cereus
Experiment: Antimicrobial activity against Bacillus cereus
Format: functional
Conditions: not given

Structure (SMILES) | MIC [µg/mL]
Oc1cccc(-c2nnnn2-c2nc3ccccc3s2)c1 | 50 to 100 (≈ 169 to 339 µM)
CN(C)c1ccc(-c2nnnn2-c2nc3ccccc3s2)cc1 | 50 to 100 (≈ 155 to 310 µM)
c1ccc(-c2nnnn2-c2nc3ccccc3s2)cc1 | 50 to 100 (≈ 179 to 358 µM)

Continued, values first:

MIC [µg/mL] | Structure (SMILES)
50 to 100 (≈ 169 to 339 µM) | Oc1ccc(-c2nnnn2-c2nc3ccccc3s2)cc1
50 to 100 (≈ 170 to 341 µM) | Cc1ccc(-c2nnnn2-c2nc3ccccc3s2)cc1

System: Bacillus subtilis
Experiment: Antimicrobial activity against Bacillus subtilis
Format: functional
Conditions: not given

MIC [µg/mL] | Structure (SMILES)
30 (≈ 92.8 µM) | O=C(N[C@H](CO)[C@H](O)c1ccc([N+](=O)[O-])cc1)C(Cl)Cl [CHLORAMPHENICOL]
31.2 (≈ 103 µM) | CCn1cc(C(=O)O)c(=O)c2cnc(N3CCNCC3)nc21 [PIPEMIDIC ACID]
24 to 76 (≈ 41.7 to 132 µM) | CCCCCC(O)C(C(CCCCCCC(=O)OCCn1c([N+](=O)[O-])cnc1C)n1nnnc1C)n1nnnc1C (stereo not drawn)

System: Salmonella typhimurium
Experiment: Antimicrobial activity against Salmonella typhimurium
Format: functional, Salmonella enterica subsp. enterica serovar Typhimurium
Conditions: Salmonella enterica

MIC [µg/mL] | Structure (SMILES)
30 (≈ 92.8 µM) | O=C(N[C@H](CO)[C@H](O)c1ccc([N+](=O)[O-])cc1)C(Cl)Cl [CHLORAMPHENICOL]
31.2 (≈ 103 µM) | CCn1cc(C(=O)O)c(=O)c2cnc(N3CCNCC3)nc21 [PIPEMIDIC ACID]
34 (≈ 59.1 µM) | CCCCCC(O)C(C(CCCCCCC(=O)OCCn1c([N+](=O)[O-])cnc1C)n1nnnc1C)n1nnnc1C (stereo not drawn)

System: Candida albicans
Experiment: Antifungal activity against Candida albicans
Format: functional
Conditions: not given

Structure (SMILES) | MIC [µg/mL]
Oc1cccc(-c2nnnn2-c2nc3ccccc3s2)c1 | 50 to 100 (≈ 169 to 339 µM)
CN(C)c1ccc(-c2nnnn2-c2nc3ccccc3s2)cc1 | 50 to 100 (≈ 155 to 310 µM)
c1ccc(-c2nnnn2-c2nc3ccccc3s2)cc1 | 50 to 100 (≈ 179 to 358 µM)

The next lines start with the values.

MIC [µg/mL] | Structure (SMILES)
50 to 100 (≈ 169 to 339 µM) | Oc1ccc(-c2nnnn2-c2nc3ccccc3s2)cc1
124 (≈ 215 µM) | CCCCCC(O)C(C(CCCCCCC(=O)OCCn1c([N+](=O)[O-])cnc1C)n1nnnc1C)n1nnnc1C (stereo not drawn)
50 to 100 (≈ 170 to 341 µM) | Cc1ccc(-c2nnnn2-c2nc3ccccc3s2)cc1

System: Staphylococcus aureus
Experiment: Antimicrobial activity against Staphylococcus aureus assessed as zone of inhibition at 250 ug/ml
Format: functional
Conditions: read-out: IZ

Structure (SMILES) | zone of inhibition at 250 µg/mL [mm]
Oc1cccc(-c2nnnn2-c2nc3ccccc3s2)c1 | 16 to 26
CN(C)c1ccc(-c2nnnn2-c2nc3ccccc3s2)cc1 | 16 to 26
Oc1ccc(-c2nnnn2-c2nc3ccccc3s2)cc1 | 16 to 26
c1ccc(-c2nnnn2-c2nc3ccccc3s2)cc1 | 16 to 26
Cc1ccc(-c2nnnn2-c2nc3ccccc3s2)cc1 | 16 to 26

System: Bacillus cereus
Experiment: Antimicrobial activity against Bacillus cereus assessed as zone of inhibition at 250 ug/ml
Format: functional
Conditions: read-out: IZ

Structure (SMILES) | zone of inhibition at 250 µg/mL [mm]
Oc1cccc(-c2nnnn2-c2nc3ccccc3s2)c1 | 16 to 26
CN(C)c1ccc(-c2nnnn2-c2nc3ccccc3s2)cc1 | 16 to 26
Oc1ccc(-c2nnnn2-c2nc3ccccc3s2)cc1 | 16 to 26
c1ccc(-c2nnnn2-c2nc3ccccc3s2)cc1 | 16 to 26
Cc1ccc(-c2nnnn2-c2nc3ccccc3s2)cc1 | 16 to 26

System: Escherichia coli
Experiment: Antimicrobial activity against Escherichia coli assessed as zone of inhibition at 250 ug/ml
Format: functional
Conditions: read-out: IZ

Structure (SMILES) | zone of inhibition at 250 µg/mL [mm]
Oc1cccc(-c2nnnn2-c2nc3ccccc3s2)c1 | 16 to 26
CN(C)c1ccc(-c2nnnn2-c2nc3ccccc3s2)cc1 | 16 to 26
Oc1ccc(-c2nnnn2-c2nc3ccccc3s2)cc1 | 16 to 26
c1ccc(-c2nnnn2-c2nc3ccccc3s2)cc1 | 16 to 26
Cc1ccc(-c2nnnn2-c2nc3ccccc3s2)cc1 | 16 to 26

System: Pseudomonas aeruginosa
Experiment: Antimicrobial activity against Pseudomonas aeruginosa assessed as zone of inhibition at 250 ug/ml
Format: functional
Conditions: read-out: IZ

Structure (SMILES) | zone of inhibition at 250 µg/mL [mm]
Oc1cccc(-c2nnnn2-c2nc3ccccc3s2)c1 | 16 to 26
CN(C)c1ccc(-c2nnnn2-c2nc3ccccc3s2)cc1 | 16 to 26
Oc1ccc(-c2nnnn2-c2nc3ccccc3s2)cc1 | 16 to 26
c1ccc(-c2nnnn2-c2nc3ccccc3s2)cc1 | 16 to 26
Cc1ccc(-c2nnnn2-c2nc3ccccc3s2)cc1 | 16 to 26

System: Candida albicans
Experiment: Antifungal activity against Candida albicans assessed as zone of inhibition at 250 ug/ml
Format: functional
Conditions: read-out: IZ

Structure (SMILES) | zone of inhibition at 250 µg/mL [mm]
Oc1cccc(-c2nnnn2-c2nc3ccccc3s2)c1 | 16 to 26
CN(C)c1ccc(-c2nnnn2-c2nc3ccccc3s2)cc1 | 16 to 26
Oc1ccc(-c2nnnn2-c2nc3ccccc3s2)cc1 | 16 to 26
c1ccc(-c2nnnn2-c2nc3ccccc3s2)cc1 | 16 to 26
Cc1ccc(-c2nnnn2-c2nc3ccccc3s2)cc1 | 16 to 26

System: Aspergillus niger
Experiment: Antifungal activity against Aspergillus niger assessed as zone of inhibition at 250 ug/ml
Format: functional
Conditions: read-out: IZ

Structure (SMILES) | zone of inhibition at 250 µg/mL [mm]
Oc1cccc(-c2nnnn2-c2nc3ccccc3s2)c1 | 16 to 26
CN(C)c1ccc(-c2nnnn2-c2nc3ccccc3s2)cc1 | 16 to 26
Oc1ccc(-c2nnnn2-c2nc3ccccc3s2)cc1 | 16 to 26
c1ccc(-c2nnnn2-c2nc3ccccc3s2)cc1 | 16 to 26
Cc1ccc(-c2nnnn2-c2nc3ccccc3s2)cc1 | 16 to 26

System: Aspergillus niger
Experiment: Antifungal activity against Aspergillus niger
Format: functional
Conditions: not given

Structure (SMILES) | MIC [µg/mL]
Oc1cccc(-c2nnnn2-c2nc3ccccc3s2)c1 | 50 to 100 (≈ 169 to 339 µM)
CN(C)c1ccc(-c2nnnn2-c2nc3ccccc3s2)cc1 | 50 to 100 (≈ 155 to 310 µM)
c1ccc(-c2nnnn2-c2nc3ccccc3s2)cc1 | 50 to 100 (≈ 179 to 358 µM)

The next lines start with the values.

MIC [µg/mL] | Structure (SMILES)
50 to 100 (≈ 169 to 339 µM) | Oc1ccc(-c2nnnn2-c2nc3ccccc3s2)cc1
50 to 100 (≈ 170 to 341 µM) | Cc1ccc(-c2nnnn2-c2nc3ccccc3s2)cc1

System: Priestia megaterium
Experiment: Antimicrobial activity against Bacillus megaterium
Format: functional
Conditions: not given

MIC [µg/mL] | Structure (SMILES)
31.2 (≈ 103 µM) | CCn1cc(C(=O)O)c(=O)c2cnc(N3CCNCC3)nc21 [PIPEMIDIC ACID]

System: Micrococcus luteus
Experiment: Antibacterial activity against Micrococcus luteus
Format: functional
Conditions: not given

MIC [µg/mL] | Structure (SMILES)
31.2 (≈ 103 µM) | CCn1cc(C(=O)O)c(=O)c2cnc(N3CCNCC3)nc21 [PIPEMIDIC ACID]
